Source: patent publication EP1660440B1, “ACYLOXYALKYL CARBAMATE PRODRUGS, METHODS OF SYNTHESIS AND USE” (priority 2003, dated 2005)
Like-named read-outs stand apart in the source and are kept apart here.

Assays:
[1] = human, plasma, 1 h, 2 µM
Procedure: The stabilities of prodrugs were evaluated in one or more in vitro systems using a variety of tissue preparations following methods known in the art. The chemical stability of prodrugs in aqueous buffers at pH's of 2.0, 7.4 and 8.0 were also measured. […] Each preparation was incubated with test compound at 37°C for one hour. Aliquots (50 µL) were removed at 0, 30, and 60 min and quenched with 0.1 % trifluoroacetic acid in acetonitrile.

[2] = test system: Pancreatin; experiment: Pancreatin stability; type: in vitro ADME, porcine; details: 1 % (w/v) pancreatin, 5 µM, pH 7.5, 37 °C, after 60 min
Procedure: Pancreatin Stability: Stability studies were conducted by incubating prodrug (5 µM) with 1 % (w/v) pancreatin (Sigma, P-1625, from porcine pancreas) in 0.025 M Tris buffer containing 0.5 M NaCl (pH 7.5) at 37 °C for 60 min. The reaction was stopped by addition of 2 volumes of methanol. After centrifugation at 14,000 rpm for 10 min, the supernatant was removed and analyzed by LC/MS/MS.

[3] = human, s9, 1 h, 2 µM
[4] = test system: Caco-2 cells; details: human, Caco-2, 200 uM
[5] = rat, plasma, 1 h, 2 µM
[6] = aqueous buffer, 1 h
[7] = human, s9, 1 h, 5 µM
[8] = rat, s9, 1 h, 2 µM

| SMILES | % of Baclofen Released [1] [%] | % of Prodrug Remaining [1] [%] | % of Baclofen Released [2] [%] | % of Prodrug Remaining [2] [%] | % of Baclofen Released [3] [%] | % of Prodrug Remaining [3] [%] | Ratio A-BB-A [4] | % of Baclofen Released [5] [%] | % of Prodrug Remaining [5] [%] | % of Baclofen Released ([6]; pH 2) [%] | % of Prodrug Remaining ([6]; pH 2) [%] | % of Baclofen Released ([6]; pH 7.4) [%] | % of Prodrug Remaining ([6]; pH 7.4) [%] | % of Baclofen Released ([6]; pH 8) [%] | % of Prodrug Remaining ([6]; pH 8) [%] | % of Baclofen Released [7] [%] | % of Prodrug Remaining [7] [%] | % of Baclofen Released [8] [%] | % of Prodrug Remaining [8] [%] |
| --- | --- | --- | --- | --- | --- | --- | --- | --- | --- | --- | --- | --- | --- | --- | --- | --- | --- | --- | --- |
| CC(=O)OCOC(=O)NC[C@H](CC(=O)[O-])c1ccc(Cl)cc1.[Na+] [(10), Sodium 4-[(Acetoxymethoxy)carbonylamino]-(3R)-(4-chlorophenyl)-butanoate] | 26 | 64 | 21 | 75 | 80 | 1 | 1.2 | 15 | 85 | 1 | 100 | 3 | 101 | 9 | 98 | 96 | 2 | 78 | 0 |
| O=C([O-])C[C@@H](CNC(=O)OCOC(=O)c1ccccc1)c1ccc(Cl)cc1.[Na+] [(12), Sodium 4-[(Benzoyloxymethoxy)carbonylamino]-(3R)-(4-chlorophenyl)-butanoate] | 5 | 95 | 77 | 15 | 100 | 1 | 5.9 | 14 | 72 | 0 | 100 | 0 | 100 | 0 | 105 | 100 | 2 | 100 | 3 |
| CC(C)(C)C(=O)OCOC(=O)NC[C@H](CC(=O)[O-])c1ccc(Cl)cc1.[Na+] [(20), Sodium 4-[(Pivaloyloxymethoxy)carbonylamino]-(3R)-(4-chlorophenyl)-butanoate] | 9 | 82 | 36 | 58 | 100 | 1 | 11.8 | 8 | 92 | 0 | 100 | 0 | 100 | 0 | 103 | 100 | 1 | 75 | 25 |
| CCCC(=O)OC(C)OC(=O)NC[C@H](CC(=O)[O-])c1ccc(Cl)cc1.[Na+] (stereo partly drawn) [(32), Sodium 4-[(1-Butanoyloxyethoxy)carbonylamino]-(3R)-(4-chlorophenyl)-butanoate] | – | – | – | – | – | – | 7.6 | – | – | – | – | – | – | – | – | – | – | – | – |
| CC(OC(=O)NC[C@H](CC(=O)[O-])c1ccc(Cl)cc1)OC(=O)C(C)(C)C.[Na+] (stereo partly drawn) [(36), Sodium 4-[(1-Pivaloyrloxyethoxy)carbonylamino]-(3R)-(4-chlorophenyl)-butanoate] | – | – | – | – | – | – | 1.5 | – | – | – | – | – | – | – | – | – | – | – | – |
| CCC(=O)OC(OC(=O)NC[C@H](CC(=O)[O-])c1ccc(Cl)cc1)C(C)C.[Na+] (stereo partly drawn) [(48), Sodium 4-[(1-Propanoyloxyisobutoxy)carbonylamino]-(3R)-(4-chlorophenyl)-butanoate] | – | – | – | – | – | – | 6.5 | – | – | – | – | – | – | – | – | – | – | – | – |
| CCOC(C)(OCC)C(=O)OCOC(=O)NC[C@H](CC(=O)[O-])c1ccc(Cl)cc1.[Na+] [(51), Sodium 4-[(2,2-Diethoxypropanoyloxymethoxy)carbonylamino]-(3R)-(4-chlorophenyl)-butanoate] | 50 | 53 | 50 | 44 | 91 | 6 | 3.0 | 72 | 31 | 0 | 100 | 2 | 97 | 9 | 91 | 100 | 3 | 103 | 2 |
| COc1ccc(C(=O)OCOC(=O)NC[C@H](CC(=O)[O-])c2ccc(Cl)cc2)cc1.[Na+] [(53), Sodium 4-[(4-Methoxybenzoyloxymethoxy)carbonylamino]-(3R)-(4-chlorophenyl)-butan oate] | – | – | – | – | – | – | 2.4 | – | – | – | – | – | – | – | – | – | – | – | – |
